{
  "source": "ChEMBL document CHEMBL1137165",
  "about": "“Rational design of potent and selective NH-linked aryl/heteroaryl cathepsin K inhibitors” (Bioorg Med Chem Lett, 2004)",
  "key": {"[1]": {"biological_target": "Procathepsin L (Homo sapiens, UniProt P07711)", "sequence (P07711 whole entry)": "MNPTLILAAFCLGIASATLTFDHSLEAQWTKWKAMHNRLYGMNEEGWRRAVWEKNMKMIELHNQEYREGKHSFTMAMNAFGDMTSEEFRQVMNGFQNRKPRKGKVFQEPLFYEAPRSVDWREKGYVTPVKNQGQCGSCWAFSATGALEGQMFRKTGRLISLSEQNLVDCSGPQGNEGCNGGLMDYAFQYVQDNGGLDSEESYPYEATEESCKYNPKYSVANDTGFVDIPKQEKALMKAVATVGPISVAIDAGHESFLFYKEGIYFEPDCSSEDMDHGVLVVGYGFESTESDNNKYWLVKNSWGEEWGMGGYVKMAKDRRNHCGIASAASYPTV", "assay": "Inhibitory concentration against human cathepsin L"}, "[2]": {"biological_target": "Cathepsin K (Oryctolagus cuniculus, UniProt P43236)", "assay": "Inhibitory concentration against humanized rabbit cathepsin K"}, "[3]": {"biological_target": "Cathepsin S (Homo sapiens, UniProt P25774)", "sequence (P25774 whole entry)": "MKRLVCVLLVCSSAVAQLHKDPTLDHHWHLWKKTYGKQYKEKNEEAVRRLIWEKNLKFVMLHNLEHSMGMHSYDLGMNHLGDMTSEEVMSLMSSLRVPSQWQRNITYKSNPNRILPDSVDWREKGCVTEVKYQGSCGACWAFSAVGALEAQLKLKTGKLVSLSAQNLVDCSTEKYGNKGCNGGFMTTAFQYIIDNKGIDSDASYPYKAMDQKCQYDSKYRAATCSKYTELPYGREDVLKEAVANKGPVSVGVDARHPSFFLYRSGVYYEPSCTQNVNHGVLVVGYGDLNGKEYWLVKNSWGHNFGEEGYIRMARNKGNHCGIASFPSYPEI", "assay": "Inhibitory concentration against human cathepsin S"}, "[4]": {"assay": "Compound was evaluated for its increased potency in bone resorption assay", "type": "functional"}, "[5]": {"biological_target": "Cathepsin B (Homo sapiens, UniProt P07858)", "assay": "Inhibitory concentration against human cathepsin B"}, "[6]": {"biological_target": "T1, Cathepsin K (Homo sapiens, UniProt P43235)", "T1 sequence (P43235 whole entry)": "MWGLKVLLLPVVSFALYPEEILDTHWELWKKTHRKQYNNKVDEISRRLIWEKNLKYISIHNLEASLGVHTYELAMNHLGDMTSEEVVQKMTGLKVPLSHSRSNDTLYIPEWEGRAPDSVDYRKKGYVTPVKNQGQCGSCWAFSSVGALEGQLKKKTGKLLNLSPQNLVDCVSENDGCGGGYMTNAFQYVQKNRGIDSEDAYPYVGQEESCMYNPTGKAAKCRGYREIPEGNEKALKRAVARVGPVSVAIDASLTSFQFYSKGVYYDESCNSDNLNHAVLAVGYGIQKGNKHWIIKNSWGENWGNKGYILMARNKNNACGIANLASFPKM", "assay": "Inhibitory concentration against human cathepsin K"}},
  "data": [
    {"smiles": "CC(C)C[C@H](Nc1cccc(-c2ccc(N3CCNCC3)cc2)c1)C(=O)NCC#N", "values": [
      {"measurement": "IC50", "setting": "[1]", "result": 0.108, "unit": "µM"},
      {"measurement": "IC50", "setting": "[2]", "result": 0.002, "unit": "µM"},
      {"measurement": "IC50", "setting": "[3]", "result": 0.024, "unit": "µM"},
      {"measurement": "Activity", "setting": "[4]", "result": 61, "unit": "nM"},
      {"measurement": "IC50", "setting": "[5]", "result": 0.093, "unit": "µM"}
    ]},
    {"smiles": "CC(C)CC(Sc1cccc(Br)c1)C(=O)NCC#N", "note": "(stereo not given)", "values": [
      {"measurement": "IC50", "setting": "[2]", "result": 0.684, "unit": "µM"}
    ]},
    {"smiles": "CC(C)C[C@H](Nc1cscc1Br)C(=O)NCC#N", "values": [
      {"measurement": "IC50", "setting": "[1]", "result": 0.458, "unit": "µM"},
      {"measurement": "IC50", "setting": "[2]", "result": 0.043, "unit": "µM"},
      {"measurement": "IC50", "setting": "[3]", "result": 0.897, "unit": "µM"},
      {"measurement": "Activity", "setting": "[4]", "result": 71, "unit": "nM"},
      {"measurement": "IC50", "setting": "[5]", "result": 0.158, "unit": "µM"}
    ]},
    {"smiles": "CC(C)CC(Sc1ccc(Br)cc1)C(=O)NCC#N", "note": "(stereo not given)", "values": [
      {"measurement": "IC50", "setting": "[2]", "result": 0.675, "unit": "µM"}
    ]},
    {"smiles": "CC(C)CC(Nc1ccc(Br)cc1)C(=O)NCC#N", "note": "(stereo not given)", "values": [
      {"measurement": "IC50", "setting": "[2]", "result": 0.208, "unit": "µM"}
    ]},
    {"smiles": "CC(C)C[C@H](Nc1cscc1-c1ccc(N2CCNCC2)cc1)C(=O)NCC#N", "values": [
      {"measurement": "IC50", "setting": "[1]", "result": 0.352, "unit": "µM"},
      {"measurement": "IC50", "setting": "[6]", "result": 0.0002, "unit": "µM"},
      {"measurement": "IC50", "setting": "[2]", "result": 0.001, "unit": "µM"},
      {"measurement": "IC50", "setting": "[3]", "result": 0.102, "unit": "µM"},
      {"measurement": "Activity", "setting": "[4]", "result": 10, "unit": "nM"},
      {"measurement": "IC50", "setting": "[5]", "result": 0.123, "unit": "µM"}
    ]},
    {"smiles": "CC(C)CC(Oc1cccc(Br)c1)C(=O)NCC#N", "note": "(stereo not given)", "values": [
      {"measurement": "IC50", "setting": "[2]", "result": 1.47, "unit": "µM"}
    ]},
    {"smiles": "CC(C)C[C@H](Nc1ccccc1-c1ccc(N2CCNCC2)cc1)C(=O)NCC#N", "values": [
      {"measurement": "IC50", "setting": "[1]", "result": 2.1, "unit": "µM"},
      {"measurement": "IC50", "setting": "[2]", "result": 0.003, "unit": "µM"},
      {"measurement": "IC50", "setting": "[3]", "result": 0.158, "unit": "µM"},
      {"measurement": "Activity", "setting": "[4]", "result": 9, "unit": "nM"},
      {"measurement": "IC50", "setting": "[5]", "result": 1.81, "unit": "µM"}
    ]},
    {"smiles": "CC(C)CC(Cc1ccc(Br)cc1)C(=O)NCC#N", "note": "(stereo not given)", "values": [
      {"measurement": "IC50", "setting": "[2]", "result": 2.39, "unit": "µM"}
    ]},
    {"smiles": "CC(C)CC(Cc1ccccc1Br)C(=O)NCC#N", "note": "(stereo not given)", "values": [
      {"measurement": "IC50", "setting": "[2]", "result": 2.35, "unit": "µM"}
    ]},
    {"smiles": "CC(C)CC(Nc1cccc(Br)c1)C(=O)NCC#N", "note": "(stereo not given)", "values": [
      {"measurement": "IC50", "setting": "[2]", "result": 0.072, "unit": "µM"}
    ]},
    {"smiles": "CC(C)CC(Sc1ccccc1Br)C(=O)NCC#N", "note": "(stereo not given)", "values": [
      {"measurement": "IC50", "setting": "[2]", "result": 0.433, "unit": "µM"}
    ]},
    {"smiles": "CC(C)CC(Oc1ccc(Br)cc1)C(=O)NCC#N", "note": "(stereo not given)", "values": [
      {"measurement": "IC50", "setting": "[2]", "result": 3, "unit": "µM"}
    ]},
    {"smiles": "CC(C)CC(Cc1cccc(Br)c1)C(=O)NCC#N", "note": "(stereo not given)", "values": [
      {"measurement": "IC50", "setting": "[2]", "result": 3.39, "unit": "µM"}
    ]},
    {"smiles": "CC(C)C[C@H](Nc1ccc(-c2ccc(N3CCNCC3)cc2)cc1)C(=O)NCC#N", "values": [
      {"measurement": "IC50", "setting": "[1]", "result": 0.115, "unit": "µM"},
      {"measurement": "IC50", "setting": "[2]", "result": 0.027, "unit": "µM"},
      {"measurement": "IC50", "setting": "[3]", "result": 0.034, "unit": "µM"},
      {"measurement": "Activity", "setting": "[4]", "result": 37, "unit": "nM"},
      {"measurement": "IC50", "setting": "[5]", "result": 0.026, "unit": "µM"}
    ]},
    {"smiles": "CC(C)CC(Oc1ccccc1Br)C(=O)NCC#N", "note": "(stereo not given)", "values": [
      {"measurement": "IC50", "setting": "[2]", "result": 1.15, "unit": "µM"}
    ]},
    {"smiles": "CC(C)C[C@@H](C(=O)NCC#N)c1cccc(-c2ccc(N3CCNCC3)cc2)c1", "values": [
      {"measurement": "IC50", "setting": "[2]", "result": 0.011, "unit": "µM"},
      {"measurement": "Activity", "setting": "[4]", "result": 95, "unit": "nM"}
    ]},
    {"smiles": "CC(C)CC(Nc1ccccc1Br)C(=O)NCC#N", "note": "(stereo not given)", "values": [
      {"measurement": "IC50", "setting": "[2]", "result": 0.054, "unit": "µM"}
    ]}
  ]
}
